Assay results from ChEMBL document CHEMBL6120963, “Discovery of Novel PROTAC SIRT6 Degraders with Potent Efficacy against Hepatocellular Carcinoma” (J Med Chem, 2024).
Calls of active or inactive are those of the source. No cut-off for these calls is given here.

Tests used:
[1] = biological target: T1, Protein cereblon/NAD-dependent protein deacylase sirtuin-6 (Homo sapiens, UniProt Q8N6T7+Q96SW2); experiment: PROTAC activity at CRBN/SIRT6 in human SK-HEP1 cells assessed as hook effect upto 5 uM incubated for 36 hrs by Western blot analysis; format: cell-based
[2] = test system: SK-HEP1; experiment: Effect on SIRT7 expression in human SK-HEP1 cells at 0.002 to 1 uM incubated for 36 hrs by Western blot analysis; format: functional, cell-based; details: dose 0.002-1 µM
[3] = test system: SK-HEP1; experiment: Effect on H3K18Ac expression in human SK-HEP1 cells at 0.002 to 1 uM incubated for 36 hrs by Western blot analysis; format: functional, cell-based; details: dose 0.002-1 µM
[4] = biological target: T1, Protein cereblon/NAD-dependent protein deacylase sirtuin-6; experiment: PROTAC activity at CRBN/SIRT6 in human SK-HEP1 cells assessed as reduction in fluorescence intensity of SIRT6 labeling incubated for about 36 hrs by immunofluorescence based analysis; format: cell-based
[5] = biological target: T1, Protein cereblon/NAD-dependent protein deacylase sirtuin-6; experiment: PROTAC activity at CRBN/SIRT6 in human SK-HEP1 cells assessed as induction of SIRT6 degradation at 1 uM pretreated for 36 hrs followed by compound washout measured for 36 hrs by Western blot analysis; format: cell-based
[6] = test system: SK-HEP1; experiment: Cytotoxicity against human SK-HEP1 cells incubated for 72 hrs by CCK8 assay; format: functional, cell-based; details: SK-HEP1, 72 h
[7] = test system: SK-HEP1; experiment: Induction of apoptosis in human SK-HEP1 cells assessed as rate of apoptotic cells at 10 uM incubated for 72 hrs by Annexin V-FITC/PI staining based flow cytometry relative to control; format: functional
[8] = test system: SK-HEP1; experiment: Effect of SIRT1 mRNA expression in human SK-HEP1 cells at 2.5 uM incubated for 36 hrs by RT-qPCR analysis; format: functional, cell-based
[9] = test system: SK-HEP1; experiment: Effect of GBX2 mRNA expression in human SK-HEP1 cells at 2.5 uM incubated for 36 hrs by RNA sequencing analysis; format: functional, cell-based
[10] = biological target: T1, Protein cereblon/NAD-dependent protein deacylase sirtuin-6; experiment: PROTAC activity at CRBN/SIRT6 in human SK-HEP1 cells assessed as induction of SIRT6 degradation at 2.5 uM incubated for 36 hrs by proteomic analysis; format: cell-based
[11] = biological target: T1, Protein cereblon/NAD-dependent protein deacylase sirtuin-6; experiment: PROTAC activity at CRBN/SIRT6 in human SK-HEP1 cells assessed as disruption of CHD4 recruitment to DSB sites at 2.5 uM incubated for 36 hrs followed by CPT treatment for 4 hrs by Western blot analysis; format: cell-based; details: time 40.0 hrs
[12] = Toxicity in BALB/c nude mouse xenografted with human SK-HEP1 cells assessed as pathological damage in spleen at 10 mg/kg treated for 28 to 30 days by H and E staining based analysis; format: organism-based; details: in vivo, time 28-30 day
[13] = Toxicity in BALB/c nude mouse xenografted with human SK-HEP1 cells assessed as pathological damage in heart at 10 mg/kg treated for 28 to 30 days in presence of sorafenib by H and E staining based analysis; format: organism-based; details: in vivo, time 28-30 day
[14] = Toxicity in BALB/c nude mouse xenografted with human SK-HEP1 cells assessed as pathological damage in spleen at 10 mg/kg treated for 28 to 30 days in presence of sorafenib by H and E staining based analysis; format: organism-based; details: in vivo, time 28-30 day
[15] = Toxicity in BALB/c nude mouse xenografted with human SK-HEP1 cells assessed as pathological damage in lungs at 10 mg/kg treated for 28 to 30 days under irradiation (3 Gy) by H and E staining based analysis; format: organism-based; details: in vivo, time 28-30 day

T1 sequence (Q8N6T7 2-355 limits assumed): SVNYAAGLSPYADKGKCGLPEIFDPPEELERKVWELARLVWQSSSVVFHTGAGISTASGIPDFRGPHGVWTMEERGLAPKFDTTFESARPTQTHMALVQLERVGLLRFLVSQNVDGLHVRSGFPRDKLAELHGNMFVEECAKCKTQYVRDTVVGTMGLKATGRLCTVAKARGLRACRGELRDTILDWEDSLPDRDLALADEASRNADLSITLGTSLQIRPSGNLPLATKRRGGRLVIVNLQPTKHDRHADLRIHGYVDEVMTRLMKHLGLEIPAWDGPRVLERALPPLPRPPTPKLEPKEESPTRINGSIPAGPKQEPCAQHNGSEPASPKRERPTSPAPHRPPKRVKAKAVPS
T1 sequence (Q96SW2 whole entry partner): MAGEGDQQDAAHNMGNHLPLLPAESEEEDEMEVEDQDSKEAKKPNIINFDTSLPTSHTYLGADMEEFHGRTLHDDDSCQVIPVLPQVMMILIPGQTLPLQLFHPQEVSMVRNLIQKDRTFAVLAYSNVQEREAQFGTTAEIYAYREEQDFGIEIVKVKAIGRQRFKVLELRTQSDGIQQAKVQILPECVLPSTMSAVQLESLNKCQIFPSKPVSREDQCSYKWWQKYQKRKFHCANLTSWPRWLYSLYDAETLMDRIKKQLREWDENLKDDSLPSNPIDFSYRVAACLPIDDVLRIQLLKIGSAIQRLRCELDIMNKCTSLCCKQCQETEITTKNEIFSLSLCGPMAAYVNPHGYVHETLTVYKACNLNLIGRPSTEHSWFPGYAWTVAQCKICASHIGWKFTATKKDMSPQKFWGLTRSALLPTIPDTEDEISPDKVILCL

Activity [1]: inactive
Activity [4]: Dose-dependent-effect
Activity [10]: Active
Activity [11]: Active
Structure (SMILES): Nc1cc(N2CCN(CC3CCN(c4cc5c(cc4F)C(=O)N(C4CCC(=O)NC4=O)C5=O)CC3)CC2)ccc1[N+](=O)[O-] (stereo unspecified)
Activity [2]: No effect
Activity [3]: No effect
Activity [5]: Not active; Sirt6 Level Slowly Recovered Within 24 Hrs After Treatment
IC50 [6]: 1510 nM
Activity [7]: Active
Activity ([7]; record 2): <=60%
Activity [8]: No effect
Activity [9]: Active
Activity [12]: Non-toxic
Activity [13]: Non-toxic
Activity [14]: Non-toxic
Activity [15]: Non-toxic
